Measured values: the NIST ThermoML archive (doi:10.1021/je1005517)
Numbers after ± are expanded uncertainties.

Assay: activity coefficient (dimensionless); of the first substance listed, at infinite dilution; xn = mol fraction of the nth substance listed
Conditions: Liquid, GC, x1 = 0

CCO [ethanol] + CCCCCCCCCCCCCCCCCCCCO
activity coefficient (338.15 K, 101 kPa): 0.124 ± 0.0075
activity coefficient (343.15 K, 101 kPa): 0.117 ± 0.007
activity coefficient (348.15 K, 101 kPa): 0.106 ± 0.0063
activity coefficient (353.15 K, 101 kPa): 0.095 ± 0.0057

CCO [ethanol] + CCCCCCCCCCCCCCCCCCO
activity coefficient (333.15 K, 101.3 kPa): 0.0433 ± 0.0026
activity coefficient (338.15 K, 101.3 kPa): 0.0396 ± 0.0024
activity coefficient (343.15 K, 101.3 kPa): 0.0369 ± 0.0022
activity coefficient (348.15 K, 101.3 kPa): 0.0343 ± 0.0021
activity coefficient (353.15 K, 101.3 kPa): 0.032 ± 0.002

CCOC(C)=O [ethyl acetate] + CCCCCCCCCCCCCCCCCCCCO
activity coefficient (338.15 K, 101 kPa): 0.123 ± 0.0074
activity coefficient (343.15 K, 101 kPa): 0.11 ± 0.0066
activity coefficient (348.15 K, 101 kPa): 0.099 ± 0.0059
activity coefficient (353.15 K, 101 kPa): 0.0888 ± 0.0053

CCOC(C)=O [ethyl acetate] + CCCCCCCCCCCCCCCCCCO
activity coefficient (333.15 K, 101.3 kPa): 0.0445 ± 0.0027
activity coefficient (338.15 K, 101.3 kPa): 0.0408 ± 0.0024
activity coefficient (343.15 K, 101.3 kPa): 0.0384 ± 0.0023
activity coefficient (348.15 K, 101.3 kPa): 0.036 ± 0.0022
activity coefficient (353.15 K, 101.3 kPa): 0.0335 ± 0.002

CCCCCC [hexane] + CCCCCCCCCCCCCCCCCCCCO
activity coefficient (338.15 K, 101 kPa): 0.129 ± 0.0077
activity coefficient (343.15 K, 101 kPa): 0.124 ± 0.0074
activity coefficient (348.15 K, 101 kPa): 0.119 ± 0.0072
activity coefficient (353.15 K, 101 kPa): 0.115 ± 0.0069

CCCCCC [hexane] + CCCCCCCCCCCCCCCCCCO
activity coefficient (333.15 K, 101 kPa): 0.0551 ± 0.0033
activity coefficient (338.15 K, 101 kPa): 0.0468 ± 0.0028
activity coefficient (343.15 K, 101 kPa): 0.0411 ± 0.0025
activity coefficient (348.15 K, 101 kPa): 0.0359 ± 0.0022
activity coefficient (353.15 K, 101 kPa): 0.0315 ± 0.0019

CO [methanol] + CCCCCCCCCCCCCCCCCCCCO
activity coefficient (338.15 K, 101 kPa): 0.122 ± 0.0073
activity coefficient (343.15 K, 101 kPa): 0.0967 ± 0.0058
activity coefficient (348.15 K, 101 kPa): 0.0737 ± 0.0044
activity coefficient (353.15 K, 101 kPa): 0.0574 ± 0.0034

CO [methanol] + CCCCCCCCCCCCCCCCCCO
activity coefficient (333.15 K, 101 kPa): 0.0423 ± 0.0025
activity coefficient (338.15 K, 101 kPa): 0.0386 ± 0.0023
activity coefficient (343.15 K, 101 kPa): 0.0357 ± 0.0021
activity coefficient (348.15 K, 101 kPa): 0.033 ± 0.002
activity coefficient (353.15 K, 101 kPa): 0.0306 ± 0.0018

CCCCCCCC [octane] + CCCCCCCCCCCCCCCCCCCCO
activity coefficient (338.15 K, 101 kPa): 0.187 ± 0.011
activity coefficient (343.15 K, 101 kPa): 0.161 ± 0.0096
activity coefficient (348.15 K, 101 kPa): 0.138 ± 0.0083
activity coefficient (353.15 K, 101 kPa): 0.12 ± 0.0072

CCCCCCCC [octane] + CCCCCCCCCCCCCCCCCCO
activity coefficient (333.15 K, 101 kPa): 0.0513 ± 0.0031
activity coefficient (338.15 K, 101 kPa): 0.0497 ± 0.003
activity coefficient (343.15 K, 101 kPa): 0.0485 ± 0.0029
activity coefficient (348.15 K, 101 kPa): 0.0473 ± 0.0028
activity coefficient (353.15 K, 101 kPa): 0.0461 ± 0.0028

CCCCC [pentane] + CCCCCCCCCCCCCCCCCCCCO
activity coefficient (338.15 K, 101 kPa): 0.0954 ± 0.0057
activity coefficient (343.15 K, 101 kPa): 0.0801 ± 0.0048
activity coefficient (348.15 K, 101 kPa): 0.0668 ± 0.004
activity coefficient (353.15 K, 101 kPa): 0.0564 ± 0.0034

CCCCC [pentane] + CCCCCCCCCCCCCCCCCCO
activity coefficient (333.15 K, 101 kPa): 0.0292 ± 0.0018
activity coefficient (338.15 K, 101 kPa): 0.0272 ± 0.0016
activity coefficient (343.15 K, 101 kPa): 0.0259 ± 0.0016
activity coefficient (348.15 K, 101 kPa): 0.0243 ± 0.0015
activity coefficient (353.15 K, 101 kPa): 0.0231 ± 0.0014

CCCO [propan-1-ol] + CCCCCCCCCCCCCCCCCCCCO
activity coefficient (338.15 K, 101 kPa): 0.213 ± 0.013
activity coefficient (343.15 K, 101 kPa): 0.193 ± 0.012
activity coefficient (348.15 K, 101 kPa): 0.175 ± 0.011
activity coefficient (353.15 K, 101 kPa): 0.159 ± 0.0095

CCCO [propan-1-ol] + CCCCCCCCCCCCCCCCCCO
activity coefficient (333.15 K, 101.3 kPa): 0.0722 ± 0.0043
activity coefficient (338.15 K, 101.3 kPa): 0.0625 ± 0.0038
activity coefficient (343.15 K, 101.3 kPa): 0.0597 ± 0.0036
activity coefficient (348.15 K, 101.3 kPa): 0.055 ± 0.003
activity coefficient (353.15 K, 101.3 kPa): 0.051 ± 0.003

ClC(Cl)(Cl)Cl [tetrachloromethane] + CCCCCCCCCCCCCCCCCCCCO
activity coefficient (338.15 K, 101 kPa): 0.0862 ± 0.0052
activity coefficient (343.15 K, 101 kPa): 0.081 ± 0.0049
activity coefficient (348.15 K, 101 kPa): 0.076 ± 0.0046
activity coefficient (353.15 K, 101 kPa): 0.0714 ± 0.0043

ClC(Cl)(Cl)Cl [tetrachloromethane] + CCCCCCCCCCCCCCCCCCO
activity coefficient (333.15 K, 101 kPa): 0.0288 ± 0.0017
activity coefficient (338.15 K, 101 kPa): 0.0285 ± 0.0017
activity coefficient (343.15 K, 101 kPa): 0.0283 ± 0.0017
activity coefficient (348.15 K, 101 kPa): 0.028 ± 0.0017
activity coefficient (353.15 K, 101 kPa): 0.0278 ± 0.0017

C1CCOC1 [tetrahydrofuran] + CCCCCCCCCCCCCCCCCCCCO
activity coefficient (338.15 K, 101 kPa): 0.0581 ± 0.0035
activity coefficient (343.15 K, 101 kPa): 0.0543 ± 0.0033
activity coefficient (348.15 K, 101 kPa): 0.0506 ± 0.003
activity coefficient (353.15 K, 101 kPa): 0.0471 ± 0.0028

C1CCOC1 [tetrahydrofuran] + CCCCCCCCCCCCCCCCCCO
activity coefficient (333.15 K, 101 kPa): 0.0204 ± 0.0012
activity coefficient (338.15 K, 101 kPa): 0.0188 ± 0.0011
activity coefficient (343.15 K, 101 kPa): 0.0177 ± 0.0011
activity coefficient (348.15 K, 101 kPa): 0.0166 ± 0.001
activity coefficient (353.15 K, 101 kPa): 0.0156 ± 0.0009

Cc1ccccc1 [toluene] + CCCCCCCCCCCCCCCCCCCCO
activity coefficient (338.15 K, 101 kPa): 0.544 ± 0.033
activity coefficient (343.15 K, 101 kPa): 0.479 ± 0.029
activity coefficient (348.15 K, 101 kPa): 0.421 ± 0.025
activity coefficient (353.15 K, 101 kPa): 0.373 ± 0.022

Cc1ccccc1 [toluene] + CCCCCCCCCCCCCCCCCCO
activity coefficient (333.15 K, 101 kPa): 0.0372 ± 0.0022
activity coefficient (338.15 K, 101 kPa): 0.0355 ± 0.0021
activity coefficient (343.15 K, 101 kPa): 0.0343 ± 0.0021
activity coefficient (348.15 K, 101 kPa): 0.0331 ± 0.002
activity coefficient (353.15 K, 101 kPa): 0.0318 ± 0.0019

ClC(Cl)Cl [trichloromethane] + CCCCCCCCCCCCCCCCCCCCO
activity coefficient (338.15 K, 101 kPa): 0.0632 ± 0.0038
activity coefficient (343.15 K, 101 kPa): 0.0622 ± 0.0037
activity coefficient (348.15 K, 101 kPa): 0.0612 ± 0.0037
activity coefficient (353.15 K, 101 kPa): 0.0604 ± 0.0036

ClC(Cl)Cl [trichloromethane] + CCCCCCCCCCCCCCCCCCO
activity coefficient (333.15 K, 101 kPa): 0.0227 ± 0.0014
activity coefficient (338.15 K, 101 kPa): 0.022 ± 0.0013
activity coefficient (343.15 K, 101 kPa): 0.0214 ± 0.0013
activity coefficient (348.15 K, 101 kPa): 0.0208 ± 0.0012
activity coefficient (353.15 K, 101 kPa): 0.0202 ± 0.0012
